Key:
[1] = target: Neuronal acetylcholine receptor; alpha4/beta2 (Rattus norvegicus) (UniProt P09483+P12390); experiment: Displacement of [3H]cytisine from alpha4beta2 nicotinic acetylcholine receptor in Rattus norvegicus (rat) cerebral cortex at 10 uM after 75 min by scintillation counting; format: tissue-based
[2] = target: T1, Neuronal acetylcholine receptor; alpha4/beta2 (Homo sapiens, UniProt P17787+P43681); experiment: Displacement of [3H]nicotine from Homo sapiens (human) alpha4beta2 nicotinic acetylcholine receptor expressed in Homo sapiens (human) SH-EP1 cells after 2.5 min by scintillation counting; format: cell-based
[3] = target: T1, Neuronal acetylcholine receptor; alpha4/beta2; experiment: Inhibition of alpha4beta2 nicotinic acetylcholine receptor (unknown origin); format: protein-complex assay

T1 sequence (P17787 whole entry): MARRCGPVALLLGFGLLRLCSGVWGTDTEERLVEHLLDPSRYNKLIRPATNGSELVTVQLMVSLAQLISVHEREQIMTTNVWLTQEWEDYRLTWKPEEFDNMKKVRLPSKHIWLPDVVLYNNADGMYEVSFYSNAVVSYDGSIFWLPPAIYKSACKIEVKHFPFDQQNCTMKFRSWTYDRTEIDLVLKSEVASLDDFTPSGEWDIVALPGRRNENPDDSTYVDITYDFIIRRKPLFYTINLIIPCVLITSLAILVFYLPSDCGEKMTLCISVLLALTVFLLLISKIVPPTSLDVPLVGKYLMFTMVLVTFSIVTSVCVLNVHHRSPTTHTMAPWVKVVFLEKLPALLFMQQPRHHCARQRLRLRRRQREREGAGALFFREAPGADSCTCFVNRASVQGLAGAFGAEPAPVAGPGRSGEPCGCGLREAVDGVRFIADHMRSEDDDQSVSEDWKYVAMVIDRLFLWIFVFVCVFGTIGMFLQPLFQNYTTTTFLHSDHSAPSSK
T1 sequence (P43681 whole entry): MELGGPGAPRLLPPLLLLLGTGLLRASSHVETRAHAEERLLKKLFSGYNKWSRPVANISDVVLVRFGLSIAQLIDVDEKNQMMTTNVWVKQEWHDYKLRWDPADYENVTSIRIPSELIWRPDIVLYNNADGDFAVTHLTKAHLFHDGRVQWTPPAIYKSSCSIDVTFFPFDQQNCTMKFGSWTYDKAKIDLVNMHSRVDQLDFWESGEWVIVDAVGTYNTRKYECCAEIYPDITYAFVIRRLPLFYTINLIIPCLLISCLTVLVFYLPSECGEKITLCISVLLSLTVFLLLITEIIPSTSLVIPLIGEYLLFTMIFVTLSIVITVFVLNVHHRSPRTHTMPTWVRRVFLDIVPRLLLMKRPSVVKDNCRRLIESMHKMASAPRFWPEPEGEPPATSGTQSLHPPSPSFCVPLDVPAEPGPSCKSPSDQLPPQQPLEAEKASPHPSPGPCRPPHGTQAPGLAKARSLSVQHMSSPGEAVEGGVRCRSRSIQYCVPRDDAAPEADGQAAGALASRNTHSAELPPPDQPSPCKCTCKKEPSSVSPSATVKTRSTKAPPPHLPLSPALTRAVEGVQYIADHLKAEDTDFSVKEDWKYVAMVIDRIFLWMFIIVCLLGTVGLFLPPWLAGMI

Compound `Cc1c(O)cccc1OCCN(c1ccccc1)c1ccccc1` has an inhibition [1] of 0%.

`CC(C)N(CCOc1cccc([N+](=O)[O-])c1)C(C)C` gave an inhibition [1] of 0%.

In the case of `CN(C)CCOc1cccc(O)c1`, the Ki ([2]; read-out: Ki) is reported as 360 nM.

Work on `O=[N+]([O-])c1cccc(OCCN(c2ccccc2)c2ccccc2)c1` yielded an inhibition [1] of 0%.

With `CC(C)N(CCOc1cccc(O)c1)C(C)C` the inhibition [1] was 0%.

`CN(C)CCOc1cncc(Cl)c1` was tested, and the Ki ([2]; read-out: Ki) was 450 nM and the inhibition [1] was 84%.

`CCCN(CCC)CCOc1cccc([N+](=O)[O-])c1` was tested, and the Ki ([2]; sh-ep1) was “Not Active” and the inhibition [1] was 21%.

For `O=[N+]([O-])c1cccc(OC[C@@H]2CC3CCN2CC3)c1`, the Ki [3] was 734 nM.

Work on `Oc1cccc(OCCN(c2ccccc2)c2ccccc2)c1` yielded an inhibition [1] of 0%.

Work on `CN(C)CCOc1cccnc1` yielded a Ki ([2]; read-out: Ki) of 300 nM and an inhibition [1] of 95%.

Work on `Oc1cccc(OC[C@@H]2CC3CCN2CC3)c1` yielded a Ki [3] of 4 nM.

`CN(C)CCOc1cccc([N+](=O)[O-])c1` was tested, and the Ki ([2]; read-out: Ki) was 3390 nM and the inhibition [1] was 33%.

With `CC(C)N(CCOc1cccnc1)C(C)C` the inhibition [2] was “Dose-dependent effect”, the Ki ([2]; read-out: Ki) was 11200 nM and the inhibition [1] was 64%.

Work on `c1ccc(N(CCOc2cccnc2)c2ccccc2)cc1` yielded an inhibition [1] of 0%.
